According to ChEMBL document CHEMBL1201862, “PubChem BioAssay data set” (2004):
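Following 48 hours of exposure in 96-well plates, responses at five concentrations were used to interpolate endpoints linearly. Here, GI50 denotes the concentration required for 50% inhibition of growth.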 Activity calls are given as the source filed them. Cut-off read from the data, not from the text of the source: active = GI50 up to about 1.1 µM and inactive = higher.

What was measured:
Assay in all cases: NCI-60 cell line screen, 48 h
K562 = test system: K562
SF-295 = test system: SF-295
CCRF-CEM = test system: CCRF-CEM
TK-10 = test system: TK-10
COLO 205 = test system: COLO 205
ACHN = test system: ACHN
NCI-H460 = test system: NCI-H460
LOX IMVI = test system: LOX IMVI
M14 = test system: M14
DMS-273 = test system: DMS-273
HCT-15 = test system: HCT-15
SF-268 = test system: SF-268
SNB-75 = test system: SNB-75
UO-31 = test system: UO-31
UACC-62 = test system: UACC-62
HL-60 = test system: HL-60
SK-MEL-28 = test system: SK-MEL-28
KM12 = test system: KM12
NCI-H522 = test system: NCI-H522
MOLT-4 = test system: MOLT-4
NCI-H226 = test system: NCI-H226
DLD-1 = test system: DLD-1
SK-MEL-2 = test system: SK-MEL-2
SN12C = test system: SN12C
NCI-H23 = test system: NCI-H23
SK-MEL-5 = test system: SK-MEL-5
OVCAR-5 = test system: OVCAR-5
CAKI-1 = test system: CAKI-1
SW-620 = test system: SW-620
UACC-257 = test system: UACC-257
SR = test system: SR
HOP-18 = test system: HOP-18
U-251 = test system: U-251
IGROV-1 = test system: IGROV-1
M19-MEL = test system: M19-MEL
HOP-62 = test system: HOP-62
A549 = test system: A549
RPMI-8226 = test system: RPMI-8226
SF-539 = test system: SF-539
DMS-114 = test system: DMS-114
RXF 393 = test system: RXF 393
HCT-116 = test system: HCT-116
Malme-3M = test system: Malme-3M
OVCAR-8 = test system: OVCAR-8
HT-29 = test system: HT-29
786-0 = test system: 786-0
SK-OV-3 = test system: SK-OV-3
A498 = test system: A498
HOP-92 = test system: HOP-92
LXFL 529 = test system: LXFL 529
OVCAR-4 = test system: OVCAR-4
SNB-78 = test system: SNB-78
NCI/ADR-RES = test system: NCI/ADR-RES
KM-20L2 = test system: KM-20L2
MCF7 = test system: MCF7
OVCAR-3 = test system: OVCAR-3
HCC 2998 = test system: HCC 2998
SNB-19 = test system: SNB-19

Measured: GI50

O=c1c2ccccc2nc(-c2ccccc2)n1NC(=S)Nc1cccc(Cl)c1
inactive: K562 > 100 µM | SF-295 64.4 µM | CCRF-CEM > 100 µM | TK-10 36.6 µM | COLO 205 > 100 µM | ACHN > 100 µM | NCI-H460 > 100 µM | LOX IMVI > 100 µM | M14 > 100 µM | DMS-273 66.4 µM | SF-268 43.7 µM | SNB-75 28.4 µM | UO-31 89.1 µM | UACC-62 75 µM | HL-60 > 100 µM | SK-MEL-28 > 100 µM | KM12 > 100 µM | NCI-H522 46.7 µM | MOLT-4 > 100 µM | NCI-H226 > 100 µM | DLD-1 > 100 µM | SK-MEL-2 > 100 µM | SN12C > 100 µM | NCI-H23 > 100 µM | SK-MEL-5 > 100 µM | OVCAR-5 > 100 µM | CAKI-1 > 100 µM | SW-620 > 100 µM | UACC-257 > 100 µM | SR > 100 µM | HOP-18 > 100 µM | U-251 43.8 µM | IGROV-1 > 100 µM | M19-MEL > 100 µM | HOP-62 60.3 µM | A549 > 100 µM | RPMI-8226 > 100 µM | SF-539 79.1 µM | DMS-114 67.3 µM | RXF 393 27.2 µM | HCT-116 95.7 µM | Malme-3M > 100 µM | OVCAR-8 > 100 µM | HT-29 > 100 µM | 786-0 68.1 µM | SK-OV-3 40.4 µM | A498 > 100 µM | HOP-92 31.8 µM | LXFL 529 > 100 µM | OVCAR-4 > 100 µM
> 100 µM: HCT-15

Nc1ccn(C2C=C(CO)C(O)C2O)c(=O)c1 (stereo not drawn)
> 625 µM: HCT-15
inactive: SF-295 > 625 µM | SNB-78 > 625 µM | COLO 205 > 625 µM | NCI-H460 > 625 µM | LOX IMVI > 625 µM | DMS-273 > 625 µM | SF-268 > 625 µM | SNB-75 > 625 µM | UO-31 > 625 µM | UACC-62 > 625 µM | HL-60 > 625 µM | KM12 > 625 µM | NCI-H226 > 625 µM | DLD-1 > 62.5 µM | SK-MEL-2 > 625 µM | SN12C > 625 µM | SK-MEL-5 > 625 µM | CAKI-1 > 625 µM | SW-620 > 625 µM | HOP-18 > 625 µM | IGROV-1 > 625 µM | NCI/ADR-RES > 625 µM | KM-20L2 > 625 µM | M19-MEL > 625 µM | HOP-62 > 625 µM | A549 > 625 µM | RPMI-8226 > 625 µM | MCF7 > 625 µM | SF-539 > 625 µM | DMS-114 > 625 µM | HCT-116 > 625 µM | OVCAR-8 > 625 µM | HT-29 > 625 µM | OVCAR-3 > 625 µM | HCC 2998 > 625 µM | SNB-19 > 625 µM | SK-OV-3 > 625 µM | HOP-92 > 625 µM | OVCAR-4 > 625 µM

O=C(/C=N/c1ccccc1C(=O)[O-])c1cccs1.O=C(/C=N/c1ccccc1C(=O)[O-])c1cccs1.[Zn+2]
> 100 µM: HCT-15
inactive: K562 29.2 µM | SF-295 20.4 µM | CCRF-CEM 23.7 µM | TK-10 > 100 µM | COLO 205 > 100 µM | ACHN > 100 µM | NCI-H460 71.8 µM | LOX IMVI 27.4 µM | M14 36.4 µM | DMS-273 > 100 µM | SF-268 27.4 µM | SNB-75 14.8 µM | UO-31 > 100 µM | UACC-62 20.8 µM | HL-60 43.3 µM | SK-MEL-28 39.5 µM | KM12 > 100 µM | NCI-H522 21.1 µM | MOLT-4 34 µM | DLD-1 39.9 µM | SK-MEL-2 25.8 µM | SN12C > 10 µM | NCI-H23 88.3 µM | OVCAR-5 24.7 µM | CAKI-1 91 µM | SW-620 67.5 µM | UACC-257 20.3 µM | SR 46.3 µM | HOP-18 > 100 µM | U-251 17.5 µM | IGROV-1 31.9 µM | KM-20L2 > 100 µM | HOP-62 > 100 µM | A549 73.8 µM | SF-539 42.5 µM | HCT-116 > 100 µM | Malme-3M > 10 µM | OVCAR-8 36.1 µM | HT-29 > 100 µM | OVCAR-3 15.4 µM | HCC 2998 > 10 µM | SNB-19 43.1 µM | 786-0 > 100 µM | SK-OV-3 20.5 µM | A498 > 100 µM | HOP-92 19.6 µM
